This is an account of results in ChEMBL document CHEMBL3784926, “Concise total synthesis of water soluble metatacarboline A, C, D, E and F and its anticancer activity” (Eur J Med Chem, 2016).

Converted amounts (≈) assume the structure as drawn. The source made the active and inactive calls. No cut-off for these calls is given here.

Data set [1] relates to C6. Description: Antiproliferative activity against rat C6 cells assessed as inhibition of colony forming ability at 600 uM after 7 days by methylene blue staining; values are per cent of control. As to conditions: C6, 168 h.
In data set [2] the test system is C6. Description: Antiproliferative activity against rat C6 cells assessed as cell viability after 24 hrs by MTT assay. The format is functional, cell-based. As to conditions: for IC50: C6, 24 h.
Data set [3] has as its system C6. Description: Cell cycle arrest in rat C6 cells assessed as accumulation at G2/M phase at 200 uM after 24 hrs by propidium iodide staining based flow cytometric analysis (reference value: 20.2%). In kind it is functional. In general terms: Flow cytometry measures light scatter and fluorescence of single cells or particles in a stream.
The test system of data set [4] is C6. Kind of data set: Cell cycle arrest in rat C6 cells assessed as accumulation at G2/M phase at 400 uM after 24 hrs by propidium iodide staining based flow cytometric analysis (reference value: 20.2%). In kind it is functional.
In data set [5] the test system is C6. Kind of data set: Antiproliferative activity against rat C6 cells assessed as inhibition of colony forming ability at 400 uM after 7 days by methylene blue staining; values are per cent of control. Particulars: C6, 168 h.
The test system of data set [6] is C6. Kind of data set: Antiproliferative activity against rat C6 cells assessed as inhibition of colony forming ability at 200 uM after 7 days by methylene blue staining; values are per cent of control. As to conditions: C6, 168 h.
For data set [7], the system named is C6. Kind of data set: Cell cycle arrest in rat C6 cells assessed as accumulation at G2/M phase at 120 uM after 24 hrs by propidium iodide staining based flow cytometric analysis (reference value: 20.2%). The format is functional.
Data set [8] concerns C6. Description: Cell cycle arrest in rat C6 cells assessed as accumulation at G2/M phase at 40 uM after 24 hrs by propidium iodide staining based flow cytometric analysis (reference value: 20.2%). In kind it is functional.
A short description of data set [9]: Solubility of the compound in water at 0.01 g after 5 mins. The format is physicochemical.
Data set [10] is described as follows: Solubility of the compound in water after 5 mins. The format is physicochemical.
Data set [11] concerns C6. Kind of data set: Induction of apoptosis in rat C6 cells assessed as PARP cleavage at 100 to 600 uM after 24 hrs by Western blot analysis. In kind it is functional, cell-based. (Immunoblotting shows a protein as a band on a membrane.)
For data set [12], the system named is C6. Kind of data set: Cell cycle arrest in rat C6 cells assessed as accumulation at sub G0/G1 phase at 100 uM after 24 hrs by propidium iodide staining based flow cytometric analysis (reference value: 0.6 %). In kind it is functional.
In data set [13] the test system is C6. Description: Induction of apoptosis in rat C6 cells assessed as DNA fragmentation at 300 uM after 24 hrs by TUNEL assay relative to control. In kind it is functional, cell-based.
For data set [14], the system named is C6. Description: Antiproliferative activity against rat C6 cells assessed as inhibition of colony forming ability at 120 uM after 7 days by methylene blue staining; values are per cent of control. Particulars: C6, 168 h.
In data set [15] the test system is C6. Description: Induction of apoptosis in rat C6 cells assessed as upregulation of p53 expression at 100 to 600 uM after 24 hrs by Western blot analysis. The format is functional, cell-based.
Data set [16] concerns C6. Kind of data set: Induction of apoptosis in rat C6 cells assessed as decrease in pro-caspase 8 expression at 100 to 600 uM after 24 hrs by Western blot analysis. The format is functional, cell-based.
In data set [17] the test system is C6. Kind of data set: Cell cycle arrest in rat C6 cells assessed as accumulation at sub G0/G1 phase at 400 uM after 24 hrs by propidium iodide staining based flow cytometric analysis (reference value: 0.6 %). The format is functional.
Data set [18] concerns C6. Description: Induction of apoptosis in rat C6 cells assessed as decrease in Bclxl expression at 100 to 600 uM after 24 hrs by Western blot analysis. The format is functional, cell-based.
Data set [19] has as its system C6. Kind of data set: Antiproliferative activity against rat C6 cells assessed as inhibition of colony forming ability at 40 uM after 7 days by methylene blue staining; values are per cent of control. Particulars: C6, 168 h.
The subject of data set [20] is C6. Kind of data set: Induction of apoptosis in rat C6 cells assessed as decrease in Bcl2 expression at 100 to 600 uM after 24 hrs by Western blot analysis. In kind it is functional, cell-based.
Data set [21] relates to C6. Kind of data set: Induction of apoptosis in rat C6 cells assessed as cleaved caspase 3 at 100 to 600 uM after 24 hrs by Western blot analysis. The format is functional, cell-based.
Data set [22] relates to C6. Kind of data set: Cell cycle arrest in rat C6 cells assessed as accumulation at sub G0/G1 phase at 200 uM after 24 hrs by propidium iodide staining based flow cytometric analysis (reference value: 0.6 %). The format is functional.
Data set [23] deals with C6. Description: Antiproliferative activity against rat C6 cells assessed as inhibition of colony forming ability at 800 uM after 7 days by methylene blue staining; values are per cent of control. Particulars: C6, 168 h.

The IC50 is the point on the concentration scale where inhibition reaches its midpoint. Usually solubility stands for the dissolved amount per volume that the medium holds. Low readings indicate little dissolved substance, high ones much dissolved substance. Turning to `CC(C)[C@H](NC(=O)c1cc2c([nH]c3ccccc32)c(CCC(=O)N2CCC[C@H]2C(=O)O)n1)C(=O)O`, in the data set with C6 [1], the colony formation (% of control) at 600 µM is 15%. The Activity entry with C6 [2] is “Dose-dependent effect”; with C6 [3], 18.3%; in the data set with C6 [4], 23.9%; in the data set with C6 [7], 22.8%; with C6 [8] it was 24.4%. The concentration for half-maximal inhibition (IC50) with C6 [2] worked out at 250 µM. Besides, the colony formation (% of control) at 400 µM with C6 [5] came out at 35%. The colony formation (% of control) at 200 µM with C6 [6] worked out at 55%. Also, in [9], the solubility result is “soluble”.
Turning to `C[C@H](NC(=O)c1cc2c([nH]c3ccccc32)c(CCC(=O)N2CCC[C@H]2C(=O)O)n1)C(=O)O`, in the data set on C6 [2], the Activity result was “Dose-dependent effect”. In addition, the solubility result in [9] is “soluble”.
With `O=C(O)c1cc2c([nH]c3ccccc32)c(CCC(=O)N2CCC[C@H]2C(=O)O)n1`, in the data set on C6 [2], the Activity entry is “Dose-dependent effect”. Besides, the concentration in solution in data set [10] (solubility at 5 min) came to 10 mg/mL (≈ 26.2 mM).
In the case of `O=C(N[C@@H](CO)C(=O)O)c1cc2c([nH]c3ccccc32)c(CCC(=O)N2CCC[C@H]2C(=O)O)n1`, the Activity entry in the data set with C6 [2] is “Dose-dependent effect”. The solubility entry in data set [9] is “soluble”.
With `C[C@H](O)[C@H](NC(=O)c1cc2c([nH]c3ccccc32)c(CCC(=O)N2CCC[C@H]2C(=O)O)n1)C(=O)O`, the result with C6 [11], in the data set with C6 [13], with C6 [15], in the data set with C6 [16], in the data set on C6 [18] and in the data set on C6 [20] was Active. Further, the outcome in the data set with C6 [21] was Active. In addition, the Activity result in the data set on C6 [2] is “Dose-dependent effect”; in the data set on C6 [12] it was 4.7%; in the data set on C6 [17], 95.1%; in the data set with C6 [22] it was 43.7%. Further, in the data set with C6 [2], the IC50 was found to be 150 µM. Moreover, the colony formation (% of control) at 120 µM in the data set on C6 [14] turned out to be 75%. In addition, in the data set with C6 [5], the colony formation (% of control) at 400 µM was 25%. For the same compound, the colony formation (% of control) at 200 µM with C6 [6] was determined as 45%. Besides, the colony formation (% of control) at 40 µM with C6 [19] is 85%. The solubility entry in data set [9] was “soluble”. In the data set on C6 [23], the colony formation (% of control) at 800 µM is 5%.
